Test results: patent publication US20100099614A1, “Antimicrobial Peptides and Methods of Use” (priority 2008, published 2010)
Where “and” joins values, the source holds several entries; their conditions need not be identical. Identical values can stand only once. Like-named read-outs stand apart in the source and are kept apart here.

What was measured:
[1] = tested on: human red blood cells; assay: Hemolytic activity (MHC50/HC50), 18 h microtiter dilution; format: cell-based; conditions: red cells of human, 18 h
Method: Hemoglobin release was determined spectrophotometrically at 570 nm. […] MHC50 was determined by plot the concentration-lysis format.

[2] = tested on: Gram-negative bacteria; assay: Antibacterial activity (MIC), microtiter dilution; format: cell-based
Method: MICs were determined by a standard microtiter dilution method in Mueller Hinton Broth (MHB). Serial dilutions of the 10× compound were added to the microtiter plates in a volume of 10 μL followed by 90 μL of bacteria for an inoculum of 5×10^5 colony-forming units (CFU)/mL. The plates were incubated at 37° C. for 24 h, and the MICs were determined as the lowest peptide concentration that inhibited growth. […]
Alternatively; minimal inhibitory concentrations were determined using a standard microtiter dilution method in a Mueller-Hinton (MH) medium. Briefly, cells were grown overnight at 37° C. in MH broth and diluted in the same medium. Serial dilutions of the peptides were added to the microtiter plates in a volume of 100 μl followed by 10 μl of bacteria for an initial cell concentration of 1×10^5 CFU/ml. Plates were incubated at 37° C. for 24 hours and MICs determined as the lowest peptide concentration that inhibited growth.

[3] = tested on: Interleukin-6 (IL-6); assay: Cytokine assay, stimulation of peripheral blood mononuclear cells, ELISA; format: cell-based, human
Method: (§1) Isolation of peripheral blood mononuclear cells (PBMCs) from 5 healthy individuals was performed as described elsewhere (108). Briefly, venous blood was drawn into 10 ml tubes containing 0.2 mg of EDTA (Monoject's-Hertogenbosch, NL). The PBMC fraction was obtained by density centrifugation of blood using Ficoll-Paque (Pharmacia Biotech AB, Sweden). […] The PBMCs were incubated in 96-well tissue culture plates (Greiner, Alphen, NL) at a concentration of 5×10^5 cells per well in a total volume of 200 μl, in the presence or absence of a set of stimuli in different experiments. […] After 24 h of incubation, the supernatants were collected and stored at -80° C. until analysis. Interleukin-6 (IL-6) and tumor necrosis factor (TNF) were measured by ELISA according to the manufacturer's protocol ([…], CLB, Amsterdam, NL). […] Agilent Technologies) with a linear AB gradient (0.2% acetonitrile/min) at a flow rate of 2 ml/min, where mobile phase A was 0.1% aqueous TFA in water and B was 0.1% TFA in acetonitrile. The purity of peptides was verified by analytical RP-HPLC. The peptides were further characterized by electrospray mass spectrometry and amino acid analysis.

[4] = tested on: tumor necrosis factor (TNF); assay: as above; format: cell-based, human
Method: as §1

[5] = Peptide hydrophobicity by RP-HPLC retention; format: physicochemical; conditions: pH 2, room temperature
Method: Peptide Synthesis and Purification—Syntheses of the peptides were carried out by solid-phase peptide synthesis using t-butyloxycarbonyl chemistry and MBHA (4-methylbenzhydrylamine) resin (0.97 mmol/g), followed by cleavage of the peptide from the resin as described previously (117-119). However, it is understood in the art that there are other suitable instruments and methods for automated or manual peptide synthesis that could be employed to produce the peptides described herein. Peptide purification was performed by reversed-phase high-performance liquid chromatography (RP-HPLC) on a Zorbax 300 SB-C8 column (250×9.4 mm I.D.; 6.5 μm particle size, 300 Å pore size; Agilent Technologies, Little Falls, Del.) with a linear AB gradient (0.1% acetonitrile/min) at a flow rate of 2 mL/min, where eluent A was 0.2% aqueous trifluoroacetic acid (TFA), pH 2, and eluent B was 0.2% TFA in acetonitrile, where the shallow 0.1% acetonitrile/min gradient started 12% below the acetonitrile concentration required to elute the peptide on injection of analytical sample using a gradient of 1% acetonitrile/min (113). The purity of the peptides was verified by analytical RP-HPLC as described below and further characterized by mass spectrometry and amino acid analysis. Crude and purified peptides were analyzed on an Agilent 1100 series liquid chromatograph. Runs were performed on a Zorbax 300 SB-C8 column (150×2.1 mm I.D.; 5 μm particle size, 300 Å pore size) from Agilent Technologies using a linear AB gradient (1% acetonitrile/min) and a flow rate of 0.25 mL/min, where eluent A was 0.2% aqueous TFA, pH 2, and eluent B was 0.2% TFA in acetonitrile.
Analytical RP-HPLC of Peptides—Peptides were analyzed on an Agilent 1100 series liquid chromatograph (Little Falls, Del.). Runs were performed on a Zorbax 300 SB-C8 column (150×2.1 mm I.D.; 5 μm particle size, 300 Å pore size) from Agilent Technologies using linear AB gradient (1% acetonitrile/min) and a flow rate of 0.25 ml/min, where solvent A was 0.05% aqueous TFA, pH 2 and solvent B was 0.05% TFA in acetonitrile. Temperature profiling analyses were performed in 3° C. increments, from 5° C. to 80° C.

[6] = Helical structure by circular dichroism spectroscopy; format: physicochemical; conditions: 222 nm
Method: The mean residue molar ellipticities of peptides were determined by circular dichroism (CD) spectroscopy, using a Jasco J-810 spectropolarimeter (Easton, Md.) at 5° C. under benign (non-denaturing) conditions (50 mM NaH2PO4/Na2HPO4/100 mM KCl, pH 7.0), hereafter referred to as benign buffer, as well as in the presence of an α-helix inducing solvent, 2,2,2-trifluoroethanol, TFE, (50 mM NaH2PO4/Na2HPO4/[…], pH 7.0 buffer/50% TFE). A 10-fold dilution of an approximately […] stock solution of the peptide analogs was loaded into a 0.1 cm quartz cell and its ellipticity scanned from 195 to 250 nm. The values of molar ellipticities of the peptide analogs at a wavelength of 222 nm were used to estimate the relative α-helicity of the peptides.

[7] = tested on: Mycobacterium tuberculosis strain H37Rv
[8] = tested on: Gram-positive bacteria
[9] = tested on: Zygomycota fungi
[10] = tested on: Ascomycota fungi; conditions: Ascomycota fungi
[11] = 50% trifluoroethanol (TFE), 5° C.; cited from earlier work
[12] = tested on: Mycobacterium tuberculosis strain H37Rv; assay: microbe, parasite or virus in culture
[13] = molecular target: Peptide D1, D-(V13K); assay: RP-HPLC temperature profiling at pH 2, maximal retention time difference against control peptide C; self-association
[14] = molecular target: Peptide D5, D-(V13K, A12L, A20L, A23L, V16K); assay: as above
[15] = molecular target: the molecule itself; assay: RP-HPLC temperature profiling, 5 to 80 C, pH 2 (self-association)
Method: Thus, if the self-association ability of a peptide in aqueous media is too strong (e.g., forming stable folded dimers through interaction of their non-polar faces) this could decrease the ability of the peptide to dissociate to monomer where the dimer cannot effectively pass through the capsule and cell wall to reach the membrane. The ability of the peptides in the present study to self-associate was determined by the technique of RP-HPLC temperature profiling at pH 2 (30,29,42). The reason pH 2 is used to determine self-association of cationic AMPs is that highly positively charged peptides are frequently not eluted from reversed-phase columns at pH 7 due to non-specific binding to negatively charged silanols on the column matrix. This is not a problem at pH 2 since the silanols are protonated (i.e., neutral) and non-specific electrostatic interactions are eliminated. At pH 2, the interactions between the peptide and the reversed-phase matrix involve ideal retention behavior, i.e., only hydrophobic interactions between the preferred binding domain (nonpolar face) of the amphipathic molecule and the hydrophobic surface of the column matrix are present (39). […]

[16] = peptide concentration 0.01 μg/ml
[17] = peptide concentration 100 μg/ml

## CC[C@@H](C)[C@@H](NC(=O)[C@@H](CC(C)C)NC(=O)[C@@H](CCCCN)NC(=O)[C@@H](CC(C)C)NC(=O)[C@@H](CC(C)C)NC(=O)[C@H](NC(=O)[C@@H](Cc1c[nH]cn1)NC(=O)[C@@H](CC(C)C)NC(=O)[C@@H](CCCCN)NC(=O)[C@H](NC(=O)[C@@H](CCCCN)NC(=O)[C@@H](CCCCN)NC(=O)[C@@H](CC(C)C)NC(=O)[C@@H](CO)NC(=O)[C@@H](CCCCN)NC(=O)[C@@H](Cc1ccccc1)NC(=O)[C@H](NC(=O)[C@@H](CCCCN)NC(=O)[C@@H](CC(C)C)NC(=O)[C@@H](Cc1ccccc1)NC(=O)[C@@H](CO)NC(=O)[C@@H](CCCCN)NC(=O)[C@@H](Cc1c[nH]c2ccccc12)NC(=O)[C@@H](CCCCN)NC(C)=O)[C@H](C)O)[C@H](C)O)[C@H](C)O)C(=O)N[C@H](CO)C(=O)N[C@H](CO)C(N)=O [D5]
[1]
  Hemolytic activity HC50: 14.9 µM
[2]; gram-negative bacteria
  increase in antibacterial activity compared to D4: 2 fold
[2]; relative to D4
  Fold improvement in antimicrobial activity (geometric mean data) compared to that of D4, Gram-negative bacteria: 2.2 fold
[2]; six Gram-negative strains, 128 μg/mL used where no activity at 64 μg/mL
  MIC GM (geometric mean of the MIC values), Gram-negative bacteria: 10.1 µg/mL
[3]; [16]
  IL-6 Exp 1: <3 pg/mL
  IL-6 Exp 2: <3 pg/mL
[3]; peptide concentration 1 μg/ml
  IL-6 Exp 1: <3 pg/mL
[3]; [17]
  IL-6 Exp 1: <3 pg/mL
  IL-6 Exp 2: <3 pg/mL
[4]; [16]
  TNF Exp 1: <0.015 ng/mL
  TNF Exp 2: <0.015 ng/mL
[4]; peptide concentration 1 μg/ml
  TNF Exp 1: <0.015 ng/mL
  TNF Exp 2: <0.015 ng/mL
[5]
  Hydrophobicity tR (retention time in RP-HPLC): 80.4 min
[6]; benign buffer containing 50% trifluoroethanol
  50% TFE [θ]222 (mean residue molar ellipticity): 35,500 deg cm^2/dmol
[6]; benign conditions (100 mM KCl, 50 mM NaH2PO4/Na2HPO4, pH 7.0)
  Benign [θ]222 (mean residue molar ellipticity): 3,700 deg cm^2/dmol
[7]; 100 μg/ml (31.7 μM), 7 days incubation vs day 0
  reduction in viability (CFU/ml): about 100 fold
[7]; further experiments, relative to D4
  Anti-tuberculosis activity to H37Rv strain Fold (compared to D4): 4.9 fold
[8]; 24 h
  MIC GM (geometric mean of the MIC values), Gram-positive bacteria: 9.0 µg/mL
[8]; gram-positive bacteria
  increase in antibacterial activity compared to D4: 2 fold
[8]; relative to D4
  Fold improvement in antimicrobial activity (geometric mean data) compared to that of D4, Gram-positive bacteria: 1.8 fold
[9]; Zygomycota fungi
  increase in antifungal activity relative to D4: 16 fold
[9]; relative to D4
  Fold improvement in antifungal activity (geometric mean data) compared to that of D4, Zygomycota fungi: 16.0 fold
[10]
  antifungal activity relative to D4: maintained the same level

## Ac-ELEKGGLEGEKGGKELEK-amide (Ac-ELEKGGLEGEKGGKELEK-NH2) [peptide C]
[11]
  [θ]222: −3,950

## CO[C@H]1/C=C/O[C@@]2(C)Oc3c(C)c(O)c4c(O)c(c(/C=N/N5CCN(C)CC5)c(O)c4c3C2=O)NC(=O)/C(C)=C\C=C\[C@H](C)[C@H](O)[C@@H](C)[C@@H](O)[C@@H](C)[C@H](OC(C)=O)[C@@H]1C [rifampin]
[12]; 168 h, read-out: Anti-tuberculosis activity MIC
  MIC: 0.033 µM and 0.027 µg/mL
[12]; read-out: Anti-tuberculosis activity to H37Rv strain MIC
  MIC: 0.033 µM and 0.027 µg/mL

B1: Peptide D1, D-(V13K) (peptide)
peptide: KWKSFLKTFKSAKKTVLHTALKAISS
modifications: all residues D-amino acids; N-terminal Nα-acetyl; C-terminal amide
[13]
  PA (dimerization / self-association parameter): 2.78

B2: Peptide D5, D-(V13K, A12L, A20L, A23L, V16K) (peptide)
peptide: KWKSFLKTFKSLKKTKLHTLLKLISS
modifications: all residues D-amino acids; N-terminal Nα-acetyl; C-terminal amide
[14]
  PA (dimerization / self-association parameter): 4.35

B3: Control peptide C (random coil peptide) (peptide)
peptide: Ac-ELEKGGLEGEKGGKELEK-NH2
[15]
  binding result: no binding
